Measured values as given in patent US11365201B2, “Chlorotonil derivatives” (HELMHOLTZ-ZENTRUM FÜR INFEKTIONSFORSCHUNG GMBH, priority 2017, dated 2022).
pIC50: −log10 of the molar value. ≈ marks a conversion by molar mass, not a printed value. Read-outs that look alike come from different tables or passages of the source.

Assays:
S. aureus Newman = test: Antimicrobial assay, MIC by microbroth dilution; type: cell-based; conditions: Staphylococcus aureus, NEWMAN; 16 h, cation-adjusted Muller-Hinton broth
Description: (§1) Bacterial strains used in susceptibility assays (minimum inhibitory concentrations, MIC) were either part of our internal strain collection or were purchased form the German Collection of Microorganisms and Cell Cultures (DSMZ). All compounds were prepared as DMSO stocks and MIC values were determined in standard microbroth dilution assays. Overnight cultures of bacteria were diluted in cation-adjusted Muller-Hinton broth (BBL™, BD) and were adjusted to approximately 10^5 cfu/mL. […] Bacteria were grown in the presence of the derivatives in serial dilution for 16 h at their optimal growth temperature. MIC values were determined according to CLSI guidelines (antibiotic concentration at which no visible bacterial growth is observed).

[1] = test system: P. falciparum 3D7 (sensitive strain); test: Antiplasmodial in vitro drug sensitivity assay (HRP2-ELISA); type: cell-based; conditions: Plasmodium falciparum
Description: (§2) Two laboratory strains of P. falciparum, the chloroquine sensitive 3D7 and the multi-resistant Dd2 were kept in continuous culture as previously described (Trager and Jensen 1976). In brief, parasites were kept in complete culture medium (RPMI 1640, 25 mM HEPES, 2 mM L-glutamine, 50 μg/ml gentamicin and 0.5% w/v AlbuMAX) at 37° C., 5% CO2 and 5% oxygen at 5% hematocrit with daily change of medium. Synchronization was performed with sorbitol twice a week (Lambros and Vanderberg 1979).
(§3) In Vitro Drug Sensitivity Assay
(§4) All compounds were dissolved in DMSO at stock dilutions between 25 and 100 mM; the reference drug chloroquine diphosphate (MW: 515.86) was diluted in distilled water and DMSO, respectively. […] Antiplasmodial activity of the different compounds was tested in a drug sensitivity assay against the two laboratory strains using the histidine-rich protein 2 (HRP2) assay as described previously (Noedl 2005). In brief: 96 well plates were pre-coated with the different compounds in a threefold dilution before ring stage parasites were added in complete culture medium at a hematocrit of 1.5% and a parasitemia of 0.05% in a total volume of 225 μl per well. After three days of incubation plates were frozen until analyzed by HRP2-ELISA. All compounds were evaluated in duplicate in at least two independent experiments.

[2] = test system: P. falciparum Dd2 (resistant strain); test: as above; type: cell-based; conditions: Plasmodium falciparum
Description: as §2, §3, §4

Gram-positive bacteria = test: Antimicrobial assay, MIC against a range of Gram-positive bacteria (Table 5); type: cell-based; conditions: read-out: MIC
Description: as §1

[3] = test system: zebrafish larvae of the AB wildtype line; test: Zebrafish embryo toxicity, maximum tolerated concentration (MTC), AB line; type: in vivo
Description: (§5) Zebrafish Embryo Toxicity
(§6) The maximum tolerated concentration (MTC) was determined on zebrafish larvae of the AB wildtype line and the TLF wild type line. Larvae were placed into a 96-well plate (one larva per well) and incubated in a solution at different concentrations (100, 50, 25, 10, 1 μM) of ChA, ChA-Epo2, ChB or ChB-Epo at two days post fertilization (dpf) for AB and in a solution at different concentrations of ChA (100, 50 μM) ChA-Epo2 (25, 10, 1 μM), ChB (100, 50 μM) or ChB-Epo (100, 50, 25 μM) at one dpf for TLF. Five zebrafish larvae were used per condition. The incubated embryos were kept in compound solutions at 28° C. until five dpf and monitored daily by microscopy. The final MTC result was recorded at five dpf. Compound solutions were prepared in the larvae medium Danieau's. Additionally a solution of 0.5% DMSO in Danieau's was used as vehicle control and Danieau's alone as a negative control.

[4] = test system: zebrafish larvae of the TLF wild type line; test: Zebrafish embryo toxicity, maximum tolerated concentration (MTC), TLF line; type: in vivo; conditions: at five dpf, incubation started at one dpf
Description: as §5, §6

Plasmodium falciparum = conditions: starting parasitemia levels of 0.01, 0.05, 0.5 and […]; cited from earlier work
[5] = Determination of water solubility, Method 2 (HPLC-MS standard curve, saturated solution in water); type: physicochemical; conditions: summary of Table 1, method not given
Description: Determination of Water Solubility
A standard curve with 10 calibration points of the compound of interest is plotted using HPLC-MS and serial dilution. The dilutions and stock solutions were prepared in THF as a solvent. Following the measurements, a saturated solution in water of the compound in study was also measured. Upon plotting the standard curve using the peak areas of the MS peaks, the water samples were plotted along the curve and the solubility was then calculated.

SMILES: C[C@@H]1C(=O)O[C@@H](C)/C=C/C=C\[C@@H](C)[C@@H]2C=C[C@@H]3C[C@@]4(C)O[C@H]4[C@@H](C)C3C2/C(O)=C(\Cl)C1=O (stereo partly shown) [ChB-Epo]
- MIC (S. aureus Newman): 0.05 µg/mL (≈ 0.108 µM)
- pIC50 ([1]; P. falciparum 3D7 (sensitive strain), read-out: IC50 against P. falciparum 3D7): 6.80
- pIC50 ([2]; P. falciparum Dd2 (resistant strain), read-out: IC50 against P. falciparum Dd2): 6.74
- MIC (Gram-positive bacteria; Enterococcus faecalis, E. faecalis 20478): 3.2 µg/mL (≈ 6.94 µM)
- MIC (Gram-positive bacteria; Enterococcus faecalis, E. faecalis 29212): > 3.2 µg/mL
- MIC (Gram-positive bacteria; Enterococcus faecium, E. faecium 20477): > 3.2 µg/mL
- MIC (Gram-positive bacteria; Enterococcus faecium, VRE, E. faecium 17050 (VRE)): 3.2 µg/mL (≈ 6.94 µM)
- MIC (Gram-positive bacteria; Micrococcus luteus, M. luteus): 0.1 µg/mL (≈ 0.217 µM)
- MIC (Gram-positive bacteria; Mycolicibacterium smegmatis, M. smegmatis): > 3.2 µg/mL
- MIC (Gram-positive bacteria; Priestia megaterium, B. megaterium): 0.05 µg/mL (≈ 0.108 µM)
- MIC (Gram-positive bacteria; Staphylococcus epidermidis, S. epidermidis 28765): 0.8 µg/mL (≈ 1.74 µM)
- MIC (Gram-positive bacteria; Streptococcus pneumoniae, PRSP, S. pneumoniae 11865 (PRSP)): > 32 µg/mL
- MIC (Gram-positive bacteria; Streptococcus pneumoniae, S. pneumoniae 20566): 0.8 µg/mL (≈ 1.74 µM)
- Observations noted on fish larvae ([3]; 50 μM, AB line, at five dpf, incubation started at two dpf): died
- Observations noted on fish larvae ([3]; 100 μM, AB line, at five dpf, incubation started at two dpf): died
- MTC (maximum tolerated concentration) ([3]; AB line, at five dpf, incubation started at two dpf): 25 µM
- Toxicity in zebrafish (MTC), comparison of the epoxide derivatives ([3]; zebrafish, line not named in the sentence (Tables 6 and 7)): less toxic than the chlorotonil A derivative
- Observations noted on fish larvae ([4]; 50 μM): slight tail malformation
- Observations noted on fish larvae ([4]; 100 μM): tail malformation
- MTC (maximum tolerated concentration) [4]: 25 µM

SMILES: CCN(CC)CCCC(C)Nc1ccnc2cc(Cl)ccc12 (stereo not shown) [Chloroquine, reference compound]
- pIC50 ([1]; 3D7, read-out: IC50 against P. falciparum 3D7): 8.13
- pIC50 ([2]; DD2, read-out: IC50 against P. falciparum Dd2): 6.54
- Inoculum effect: difference in IC50 between lowest and highest parasitemia (Plasmodium falciparum): 5.6 fold

SMILES: CC1=C[C@@H](C)[C@H]2[C@@H]3C(=O)C(Cl)(Cl)C(=O)[C@H](C)C(=O)O[C@@H](C)/C=C/C=C\[C@@H](C)[C@@H]3C=C[C@@H]2C1 [Chlorotonil A (ChA), Chlorotonil A, reference compound]
- water solubility [5]: less than 2 μg/mL

SMILES: C[C@H]1[C@H](OC(=O)CCC(=O)O)O[C@@H]2O[C@@]3(C)CC[C@H]4[C@H](C)CC[C@@H]1[C@@]24OO3 [artesunate]
- Inoculum effect: difference in IC50 between lowest and highest parasitemia (Plasmodium falciparum): 8.8 fold
